Reference: ChEMBL document CHEMBL1201862, “PubChem BioAssay data set” (2004)
Calls of active or inactive are those of the source.

Tests used:
Cytochrome P450 2C19 = Cytochrome P450 2C19 (Homo sapiens, UniProt P33261); experiment: Cytochrome panel assay with activity outcomes. Panel member name: p450-cyp2c19 Compounds with AC50 equal or less than 10 uM are considered active; format: functional
Cytochrome P450 2C9 = Cytochrome P450 2C9 (Homo sapiens, UniProt P11712)
Cytochrome P450 3A4 = Cytochrome P450 3A4 (Homo sapiens, UniProt P08684);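 also: CYP3A4 tested as one member of a cytochrome P450 panel screen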
Cytochrome P450 3A4, sequence (P08684 whole entry): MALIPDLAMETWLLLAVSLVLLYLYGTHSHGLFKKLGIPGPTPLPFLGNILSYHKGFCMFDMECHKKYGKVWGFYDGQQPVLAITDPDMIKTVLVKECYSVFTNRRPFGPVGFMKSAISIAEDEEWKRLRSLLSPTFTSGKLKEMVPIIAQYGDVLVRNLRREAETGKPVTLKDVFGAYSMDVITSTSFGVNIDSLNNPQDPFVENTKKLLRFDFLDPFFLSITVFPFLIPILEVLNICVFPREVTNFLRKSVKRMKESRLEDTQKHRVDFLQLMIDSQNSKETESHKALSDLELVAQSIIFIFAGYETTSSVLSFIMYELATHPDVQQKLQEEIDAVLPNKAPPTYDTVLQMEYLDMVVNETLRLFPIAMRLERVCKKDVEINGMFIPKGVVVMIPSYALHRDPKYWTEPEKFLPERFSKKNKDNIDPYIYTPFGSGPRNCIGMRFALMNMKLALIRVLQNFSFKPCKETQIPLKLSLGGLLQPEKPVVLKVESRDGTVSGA

[1] = NIH3T3 cell viability loss – ATP luminescence, mouse fibroblasts, counter-screen, dose response (AID 2010); format: functional, cell-based;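 also: cells exposed to compound for about 90 hours before reading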
[2] = Trypanosoma cruzi growth suppression in host cells – NIH3T3 host cells, beta-gal luminescence, confirmation (AID 2044); format: functional, cell-based;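 also: intracellular parasites grown in NIH/3T3 mouse fibroblasts as host cells; luminescent beta-galactosidase reporter signal from transgenic T. cruzi replicating inside host cells; inhibitors lower the luminescence signal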
Cytochrome P450 2D6 = Cytochrome P450 2D6 (Homo sapiens, UniProt P10635);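 also: CYP2D6 member of a cytochrome P450 panel assay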
Cytochrome P450 2D6, sequence (P10635 whole entry): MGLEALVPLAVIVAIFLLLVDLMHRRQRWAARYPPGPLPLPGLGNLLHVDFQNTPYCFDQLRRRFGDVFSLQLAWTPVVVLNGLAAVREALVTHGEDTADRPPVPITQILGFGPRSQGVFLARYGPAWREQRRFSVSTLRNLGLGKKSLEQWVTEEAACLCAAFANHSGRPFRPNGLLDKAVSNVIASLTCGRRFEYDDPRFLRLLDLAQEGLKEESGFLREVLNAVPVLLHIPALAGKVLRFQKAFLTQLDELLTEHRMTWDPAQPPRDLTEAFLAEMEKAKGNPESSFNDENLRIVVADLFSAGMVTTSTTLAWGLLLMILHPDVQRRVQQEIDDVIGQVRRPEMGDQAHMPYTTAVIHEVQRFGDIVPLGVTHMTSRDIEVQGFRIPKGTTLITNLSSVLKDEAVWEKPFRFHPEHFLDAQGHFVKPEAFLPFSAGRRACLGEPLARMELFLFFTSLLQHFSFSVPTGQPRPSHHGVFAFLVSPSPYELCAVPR

[3] = Luminescence Cell-Based Dose Retest to Confirm Inhibitors of Cancer Stem Cells. [Related pubchem assays (depositor defined):AID2717, AID2721]; format: functional; conditions: Homo sapiens
INS1 = experiment: INS-1E survival protection against cytokine death – cell-based, luminescence, retest, dose response (AID 449756); format: functional; conditions: Rattus norvegicus;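 also: cell death triggered by IL-1 beta plus TNF-alpha plus IFN-gamma mixture; protective hits raise ATP signal compared with cytokine alone wells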
[4] = tested on: Streptococcus sp. 'group A'; experiment: Streptococcus pyogenes SK(-)GAS viability under kanamycin – luminescence, BacTiterGlo, confirmation, counter-screen for streptokinase expression inhibitor project, dose response (AID 1900); format: functional, organism-based
Streptococcus = experiment: GAS UMAA2166 growth inhibition – luminescence, BacTiterGlo, counter-screen for streptokinase expression inhibitor project, dose response (AID 1915); format: functional, organism-based;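 also: potency for reduction of bacterial viability or growth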

Cytochrome P450 2C9, sequence (P11712 whole entry): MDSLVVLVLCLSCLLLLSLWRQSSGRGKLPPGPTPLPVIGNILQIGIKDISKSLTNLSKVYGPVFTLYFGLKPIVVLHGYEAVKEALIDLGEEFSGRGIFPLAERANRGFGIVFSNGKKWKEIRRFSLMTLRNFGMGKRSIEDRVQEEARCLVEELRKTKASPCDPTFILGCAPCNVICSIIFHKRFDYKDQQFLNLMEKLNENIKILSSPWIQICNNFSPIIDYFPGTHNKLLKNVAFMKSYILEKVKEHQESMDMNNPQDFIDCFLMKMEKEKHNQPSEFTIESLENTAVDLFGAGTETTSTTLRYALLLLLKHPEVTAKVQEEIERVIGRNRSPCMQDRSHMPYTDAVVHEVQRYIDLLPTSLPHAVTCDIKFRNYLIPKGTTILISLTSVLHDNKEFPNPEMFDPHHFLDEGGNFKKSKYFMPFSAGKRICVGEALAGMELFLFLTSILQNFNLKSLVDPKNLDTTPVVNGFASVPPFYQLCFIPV
Cytochrome P450 2C19, sequence (P33261 whole entry): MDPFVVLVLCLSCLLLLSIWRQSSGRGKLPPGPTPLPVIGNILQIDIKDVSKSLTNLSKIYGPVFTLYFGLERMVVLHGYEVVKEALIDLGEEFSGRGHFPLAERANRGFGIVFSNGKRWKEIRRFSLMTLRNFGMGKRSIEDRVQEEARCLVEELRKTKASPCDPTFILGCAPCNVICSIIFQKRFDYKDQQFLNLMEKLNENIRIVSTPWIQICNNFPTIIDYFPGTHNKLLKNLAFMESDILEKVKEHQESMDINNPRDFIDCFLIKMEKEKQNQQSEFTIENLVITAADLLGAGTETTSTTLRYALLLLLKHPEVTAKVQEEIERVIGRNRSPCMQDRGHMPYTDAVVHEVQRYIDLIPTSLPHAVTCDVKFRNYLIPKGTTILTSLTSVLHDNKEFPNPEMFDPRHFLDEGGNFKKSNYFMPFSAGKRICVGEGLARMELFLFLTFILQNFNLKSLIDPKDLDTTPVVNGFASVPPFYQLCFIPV

## O=C(c1csnn1)N1CCC2(CC1)CCN(c1ccncc1)CC2
Cytochrome P450 2C19; read-out: AC50
  AC50: 39.8 µM (inconclusive)
Cytochrome P450 2C9
  AC50: 15.8 µM (inconclusive)
Cytochrome P450 3A4
  AC50: 15.8 µM (inconclusive)

## N#Cc1c(C(F)(F)F)cc(-c2ccco2)nc1SCc1ccncc1
[1]
  EC50: 4.74 µM (active)
[2]
  EC50: 0.975 µM (active)

## O=C(Cn1ccc2ccccc2c1=O)N1CCN(c2cccc(Cl)c2)CC1
Cytochrome P450 2C19; read-out: AC50
  AC50: 7.08 µM (inconclusive)
Cytochrome P450 3A4
  AC50: 3.16 µM (inconclusive)

## FC(F)(F)c1cccc(CN2CCC(c3cc(-c4cccs4)[nH]n3)CC2)c1
[1]
  EC50: 14.6 µM (active)
[2]
  EC50: 2.31 µM (active)

## CCOC(=O)c1c(NC(=O)C2=C(C)N=C(S)NC2c2ccccc2C(F)(F)F)sc(C)c1C (centres undefined)
[1]
  EC50: > 60 µM (not active)
[2]
  EC50: 2.4 µM (active)

## COc1ccc(Cn2c(-c3ccc(Br)cc3)c[n+]3ccccc23)cc1
[1]
  EC50: > 30 µM (not active)
[2]
  EC50: 0.822 µM (active)

## O=S(=O)(NCc1cc(-c2ccccc2)no1)c1ccc(Cl)cc1
Cytochrome P450 2D6
  AC50: 20 µM (inconclusive)
Cytochrome P450 3A4
  AC50: 25.1 µM (inconclusive)

## O=C(COc1ccc([N+](=O)[O-])cc1)N[N-][C+]1CCCC1
Cytochrome P450 2C19; read-out: AC50
  AC50: 1.78 µM (inconclusive)
Cytochrome P450 2C9
  AC50: 0.0251 µM (inconclusive)

## CCN(CC)CCN(C(=O)c1ccc(S(=O)(=O)N(C)C2CCCCC2)cc1)c1nc2ccc(OC)cc2s1
[1]
  EC50: > 60 µM (not active)
[2]
  EC50: 0.105 µM (active)

## Cc1ccc(S(=O)ON2CCC(C(=O)O)(c3ccccc3)CC2)cc1 (centres undefined)
Cytochrome P450 2C19
  AC50: inconclusive

## O=C(CCCn1cnc([N+](=O)[O-])n1)Nc1ccc(Cl)cc1Cl
[1]
  EC50: > 60 µM (inconclusive)
[2]
  EC50: 0.132 µM (active)

## COc1cc(CN2CCN(C(=O)COc3ccccc3)CC2)cc(OC)c1OC
Cytochrome P450 2C9
  AC50: 22.4 µM (inconclusive)
Cytochrome P450 3A4
  AC50: 22.4 µM (inconclusive)

## C=C(CC1(C(C)NP(=O)(c2ccccc2)c2ccccc2)CC1)c1ccccc1 (centres undefined)
Cytochrome P450 2D6
  AC50: 39.8 µM (inconclusive)

## CS(=O)(=O)N1CCC[C@@]2(CCN(C(=O)Nc3cccc(C#N)c3)C2)C1
Cytochrome P450 3A4
  AC50: 20 µM (inconclusive)

## CCN1C(=O)C(CC(=O)Nc2ccc(OC)cc2)N(Cc2cccnc2)C1=S (centres undefined)
Cytochrome P450 2C9
  AC50: 10 µM (inconclusive)

## COc1ncc2nc(-c3ccc(Cl)cc3)c(=O)n(Cc3cccs3)c2n1
Cytochrome P450 2D6
  AC50: 2.51 µM (inconclusive)
Cytochrome P450 2C9
  AC50: 15.8 µM (inconclusive)

## Cn1c(=O)c(-c2ccc(F)c(F)c2)nc2cncnc21
Cytochrome P450 3A4
  AC50: 20 µM (inconclusive)

## c1ccc(-c2nc3ccccc3o2)nc1
Cytochrome P450 2C9
  AC50: 39.8 µM (inconclusive)

## Fc1ccc(N=C(S)NCCc2ccccc2)c(F)c1F
Cytochrome P450 2D6
  AC50: 15.8 µM (inconclusive)

## O=C(O)C/C(=C\c1ccco1)C(=O)O
Cytochrome P450 2C19
  AC50: inconclusive

## O=c1c2cc(Br)ccc2[nH]c(=S)n1Cc1cccnc1
Cytochrome P450 2D6
  AC50: 8.91 µM (inconclusive)
Cytochrome P450 2C9
  AC50: 12.6 µM (inconclusive)

## Cc1ccc(-n2nnnc2Sc2nc([N+](=O)[O-])nn2C)cc1C
Cytochrome P450 2C9
  AC50: 1.58 µM (inconclusive)

## Cc1cc2nc(SCCOC(=O)Nc3ccc(Cl)cc3)nc(C)c2cc1C
Cytochrome P450 2C9
  AC50: 2.82 µM (inconclusive)

## COc1cccc(NC(=S)N2CCn3cccc3C2c2cccnc2)c1 (centres undefined)
[1]
  EC50: > 60 µM (not active)
[2]
  EC50: 1.12 µM (active)

## CC1=CC(=C(C#N)c2nc3ccccc3s2)C=C(C)N1Cc1ccco1
[1]
  EC50: > 30 µM (not active)
[2]
  EC50: 1.75 µM (active)

## Cc1cnc(CNc2cc(-c3ccccc3CN(C)C)ncn2)cn1
Cytochrome P450 2D6
  AC50: 12.6 µM (inconclusive)

## Cc1ccc2c(c1)N(CC(=O)N1CCCCC1c1cccnc1)C(=O)CO2 (centres undefined)
[1]
  EC50: > 60 µM (not active)
[2]
  EC50: 0.482 µM (active)

## COC(=O)[C@@]1(Cc2ccc(OC)cc2)[C@@H]2[C@@H](CC(=O)[C@H]2CC(=O)C(=O)N2CCCC2)CN1C(=O)c1ccccc1
Cytochrome P450 2C19; read-out: AC50
  AC50: 25.1 µM (inconclusive)
Cytochrome P450 2C9
  AC50: 20 µM (inconclusive)

## COc1ccc(-c2noc3c2-c2nc(-c4ccccc4C)sc2CC3)cc1
[3]
  AC50: 0.689 µM (active)

## Cc1ccc(-c2csc(NC(=O)c3c(C)noc3C)n2)s1
INS1
  AC50: 3.99 µM (active)

## CCN1CCN(CCC(=O)Nc2cccc(OC)c2)CC1.Cl
Cytochrome P450 2C19
  AC50: inconclusive

## CCS(=O)(=O)c1ccc2c(c1)N(S(=O)(=O)c1ccccc1)CC(C(=O)O)O2 (centres undefined)
Cytochrome P450 2C9
  AC50: 12.6 µM (inconclusive)

## C=CC1=C[C@@H](O)C2OC2C12OCCCO2 (some centres undefined)
Cytochrome P450 2C19
  AC50: inconclusive

## Cc1cc(N/N=C/c2cccc(Cl)c2)nc(-n2nc(C)cc2C)n1
[4]
  EC50: 1.34 µM (active)
INS1
  AC50: 2.69 µM (active)
Streptococcus
  EC50: 1.61 µM (active)

## Fc1ccc(CN(C2=NCCN2)c2c(Cl)cccc2Cl)cc1
Cytochrome P450 2C9
  AC50: 39.8 µM (inconclusive)

## Nc1ncnc2c1cnn2-c1ccccc1
Cytochrome P450 2C19; read-out: AC50
  AC50: 4.47 µM (inconclusive)

## COc1ccc2c(c[n+](C)c3c4cc5c(cc4ccc23)OCO5)c1OC [CHELERYTHRINE]
Cytochrome P450 2D6
  AC50: 25.1 µM (inconclusive)
Cytochrome P450 2C9
  AC50: 39.8 µM (inconclusive)
Cytochrome P450 3A4
  AC50: 31.6 µM (inconclusive)
